For one data set, the system named is uninfected RH9 cells. As for the experimental part: (§1) The commercially available peptides, carbobenzoxy-D- Phe-L-Phe-Gly (z-PPG) and Phe-Gly-Gly-Phe (PGGP) were obtained from Sigma Chemical Company, St. Louis, MO in granular form. Stock solutions were prepared to 20 mg/ml in dimethyl sulfoxide and stored at 0° C. A line of uninfected human lymphoblasts, RH9, and a line of lymphoblasts persistently infected with human immunodeficiency virus (HIV) were obtained from Dr. Robert Garry of Tulane Medical Center, New Orleans, La. and grown in RPMI medium containing 10% fetal calf serum obtained from Gibco, Grand Island, N.Y.
To test this further incubated cultures of either uninfected RH9 cells, or HIV-infected carrier cultures, were incubated with PGGP for four days.

Data set [1] relates to human immunodeficiency virus (HIV). The data set can be described thus: HIV-induced cell fusion: RH9 cells mixed with HIV-infected lymphoblasts. Format: cell-based. As to conditions: for activity as inhibitor of HIV-induced cell fusion: RH9 + HIV-infected cells; for Polykaryocytes Mean Diameter / Polykaryocytes Per mm^2: RH9 + HIV-RH9. As for the experimental part:
as §1
In the experimental protocol, RH9 cells are pretreated with various concentrations of either z-PPG or PGGP by adding a small aliquot of the peptide/DMSO solution to a suspension culture. After 1 hour, a suspension culture containing one-half the number of HIV-infected cells are added to the RH9-peptide mixture. The mixture is then incubated at 37° C. for 18 hours, and examined periodically for induction of cell fusion in the cell mixture.

Where a SMILES comes first, the peptide text is derived from it.

Turning to `N[C@@H](Cc1ccccc1)C(=O)NCC(=O)NCC(=O)N[C@@H](Cc1ccccc1)C(=O)O` [PGGP, Phe-Gly-Gly-Phe] (H-FGGF-OH), the “effect on rate of growth, final cell density or cell viability” value in the data set with uninfected RH9 cells is on record as “no significant effect”.

For “z-Phe-Leu [x-Phe-Leu, reference compound]”, the “activity as inhibitor of HIV-induced cell fusion” value is “no demonstrable activity” in data set [1] and “ineffective” in data set [1] (listed as z-Phe-Leu).

In the case of z-Phe-Gly [reference compound], the “activity as inhibitor of HIV-induced cell fusion” value in data set [1] is on record as “no demonstrable activity”.

carbobenzoxy-D- Phe-L-Phe-Gly [z-PPG]: the “Polykaryocytes Mean Diameter” value in data set [1] (0.08 M peptide) stood at 51 um; in data set [1] (0.25 M peptide), 37 um; in data set [1] (0.8 M peptide), 26 um. Also, the figures for the “Polykaryocytes Per mm^2” value in data set [1] (0.08 M peptide), in data set [1] (0.25 M peptide) and in data set [1] (0.8 M peptide) were 105 per mm^2, 59 per mm^2 and 4 per mm^2, respectively. In data set [1] (approximtely 1 mM peptide, 1 hour pretreatment of RH9, 18 hours at 37° C.), the “inhibition of fusion (phase photomicrographs, FIG. 1)” value is given as “almost complete inhibition of fusion”. Also, the minimal inhibitory dose in data set [1] (inhibition of cell fusion under these experimental conditions, 18 hours) turned out to be 0.3 mM.

Source of the values: patent US4880779A, “Method of prevention or treatment of AIDS by inhibition of human immunodeficiency virus” (priority 1987, dated 1989).
